Measurements reported in the NIST ThermoML archive (doi:10.1021/je5009894).

Experiment: mn = molality of the nth substance listed, in mol/kg
Conditions: 298.15 K, 101 kPa, Liquid, Pycnometric method

O=[N+]([O-])[O-].O=[N+]([O-])[O-].O=[N+]([O-])[O-].[Al+3] [aluminum trinitrate] + O
Conditions	mass density [kg/m3]
m1 = 0.5413	1081.6
m1 = 0.8667	1128.8
m1 = 1.007	1148.4
m1 = 1.507	1213.3
m1 = 2.012	1288.7
m1 = 2.793	1355.7

O=[N+]([O-])[O-].O=[N+]([O-])[O-].O=[N+]([O-])[O-].[Fe+3] [ferric nitrate] + O
Conditions	mass density [kg/m3]
m1 = 0.1102	1017.4
m1 = 0.4672	1079.1
m1 = 1.183	1194.2
m1 = 1.476	1235.5
m1 = 1.907	1293.8
m1 = 2.442	1363.6

O=[N+]([O-])[O-].O=[N+]([O-])[O-].[Mn+2] [manganese nitrate] + O
Conditions	mass density [kg/m3]
m1 = 0.0287	1000.9
m1 = 0.1948	1023
m1 = 0.5661	1069.9
m1 = 1.373	1162.1
m1 = 2.006	1224
m1 = 3.484	1359
